Common to all, as to assay type: in vivo
For one assay, the system named is Abutilon theophrasti. Briefly: Pre-emergence herbicidal action, ABUTH. Also noted: key to Herbicidal action against ABUTH: % activity: 100 = plants have died, 0 = like control plants. The settings on record: for herbicidal activity ABUTH: scored visually after 3 weeks vs untreated controls (100% = plants have died). In a few lines:
(§1)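 Seeds were covered with sandy loam soil, then received a pre-emergence surface spray of the WP- or EC-formulated compound. After 3 weeks under good greenhouse growth conditions, damage was scored visually in percent.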

For the next assay, the system named is Amaranthus retroflexus. Nature of the assay: Pre-emergence herbicidal action, AMARE. Also noted: key to Herbicidal action against AMARE: % activity: 100 = plants have died, 0 = like control plants. The following applies: for Herbicidal action against AMARE: comparative experiment, 20 g of a.i./ha; for herbicidal activity AMARE: scored visually after 3 weeks vs untreated controls (100% = plants have died). The essentials: as §1

A further assay has as its system Pharbitis purpurea. Nature of the assay: Pre-emergence herbicidal action, PHBPU. The settings on record: dosage 320 g/ha; for herbicidal activity PHBPU: scored visually after 3 weeks vs untreated controls (100% = plants have died). The essentials: as §1
The test system of assay [1] is Polygonum convolvulus. Nature of the assay: Pre-emergence herbicidal action, POLCO. The following applies: dosage 320 g/ha, scored visually after 3 weeks vs untreated controls (100% = plants have died). In a few lines: as §1
A further assay concerns Echinochloa crus-galli. Briefly: Post-emergence herbicidal action, ECHCG. Also noted: key: % herbicidal action vs untreated; 100 = plants died, 0 = like control. The essentials:
(§2)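 Visual % damage versus untreated plants, scored about 3 weeks post-spray (100% = dead, 0% = like control). Greenhouse plants in sandy loam were treated at one-leaf stage with WP/EC formulations in water at 600 to 800 l/ha plus 0.2% wetting agent.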

For the next assay, the system named is Matricaria inodora. Briefly: Post-emergence herbicidal action, MATIN. Set-up: key: % herbicidal action vs untreated; 100 = plants died, 0 = like control. In a few lines: as §2
Assay [2] has as its system Polygonum convolvulus. Nature of the assay: Post-emergence herbicidal action, POLCO. The essentials:
as §2

Turning to `Cn1nnnc1NC(=O)c1ccc(I)c(C[S+](C)[O-])c1Cl` (racemic) [Example 1-363], in the assay with Abutilon theophrasti (comparative experiment, 20 g of a.i./ha), the “Herbicidal action against ABUTH” value is 100. Further, the “herbicidal activity ABUTH” value in the assay with Abutilon theophrasti (dosage 320 g/ha) is 100%. The “Herbicidal action against AMARE” value in the assay on Amaranthus retroflexus came out at 100. In addition, in the assay on Amaranthus retroflexus (dosage 320 g/ha), the “herbicidal activity AMARE” value is reported as 100%. The “herbicidal activity PHBPU” value in the assay with Pharbitis purpurea is recorded as 100%. Also, the “herbicidal activity POLCO” value with Polygonum convolvulus [1] stood at 90%. Besides, in the assay with Echinochloa crus-galli (post-emergence, dosage 80 g/ha), the “herbicidal action ECHCG” value is 100%. The “herbicidal action MATIN” value in the assay with Matricaria inodora (post-emergence, dosage 80 g/ha) is on record as 100%.
In the case of `CCSCc1c(C(F)(F)F)ccc(C(=O)Nc2nnnn2C)c1SCC` [Example 1-182], the “herbicidal activity ABUTH” value in the assay on Abutilon theophrasti (dosage 320 g/ha) amounted to 100%. For the same compound, the “Herbicidal action against AMARE” value in the assay with Amaranthus retroflexus is 70. In addition, the “herbicidal activity AMARE” value with Amaranthus retroflexus (dosage 320 g/ha) was 100%. Also, the “herbicidal activity PHBPU” value in the assay with Pharbitis purpurea worked out at 80%. Moreover, in the assay on Polygonum convolvulus [1], the “herbicidal activity POLCO” value is recorded as 100%. In the assay with Echinochloa crus-galli (Dosage 80 g/ha), the “herbicidal action ECHCG” value is 90. The “Herbicidal action against ECHCG” value in the assay with Echinochloa crus-galli (comparative experiment, post-emergence, 5 g of a.i./ha) is 80. Besides, in the assay on Matricaria inodora (Dosage 80 g/ha), the “herbicidal action MATIN” value is recorded as 90.
Turning to `CCn1nnnc1NC(=O)c1ccc(C(F)F)c(CSC)c1Cl` [Example 2-320], the “herbicidal activity ABUTH” value with Abutilon theophrasti (dosage 320 g/ha) was 100%. Further, the “herbicidal activity AMARE” value in the assay with Amaranthus retroflexus (dosage 320 g/ha) is recorded as 100%. In addition, the “herbicidal activity PHBPU” value with Pharbitis purpurea worked out at 80%. Further, the “herbicidal activity POLCO” value in the assay on Polygonum convolvulus [1] came out at 90%. Besides, the “herbicidal action ECHCG” value with Echinochloa crus-galli (Dosage 80 g/ha) came out at 100. For the same compound, in the assay with Polygonum convolvulus [2] (Dosage 80 g/ha), the “herbicidal action POLCO” value turned out to be 100.
With `CCS(=O)(=O)Cc1c(C(F)(F)F)ccc(C(=O)Nc2nnnn2C)c1C` [Example 1-88], in the assay with Abutilon theophrasti (dosage 320 g/ha), the “herbicidal action ABUTH” value was 100%. For the same compound, in the assay with Amaranthus retroflexus (dosage 320 g/ha), the “herbicidal action AMARE” value was 100%. The “herbicidal action PHBPU” value in the assay on Pharbitis purpurea was determined as 90%. The “herbicidal action ECHCG” value in the assay on Echinochloa crus-galli (Dosage 80 g/ha) was 90. For the same compound, the “herbicidal action MATIN” value with Matricaria inodora (Dosage 80 g/ha) is listed as 90. The “herbicidal action POLCO” value with Polygonum convolvulus [2] (Dosage 80 g/ha) is given as 90.
Take `CCCn1nnnc1NC(=O)c1ccc(C(F)(F)F)c(CSCC2CC2)c1Cl` [Example 3-314]: in the assay with Abutilon theophrasti (dosage 320 g/ha), the “herbicidal activity ABUTH” value amounted to 100%. Moreover, the “herbicidal activity AMARE” value with Amaranthus retroflexus (dosage 320 g/ha) is 100%. In the assay with Pharbitis purpurea, the “herbicidal activity PHBPU” value is reported as 80%. The “herbicidal action ECHCG” value with Echinochloa crus-galli (post-emergence, dosage 80 g/ha) is given as 100%. The “herbicidal action MATIN” value in the assay with Matricaria inodora (post-emergence, dosage 80 g/ha) was 100%. The “herbicidal action POLCO” value with Polygonum convolvulus [2] (post-emergence, dosage 80 g/ha) was 100%.
Turning to `CCn1nnnc1NC(=O)c1ccc(I)c(C[S+](C)[O-])c1Cl` (stereo not drawn) [Example 2-363], the “herbicidal activity ABUTH” value with Abutilon theophrasti (dosage 320 g/ha) worked out at 100%. Besides, the “herbicidal activity AMARE” value with Amaranthus retroflexus (dosage 320 g/ha) was 100%. In addition, in the assay on Pharbitis purpurea, the “herbicidal activity PHBPU” value is recorded as 80%. Besides, in the assay on Echinochloa crus-galli (Dosage 80 g/ha), the “herbicidal action ECHCG” value worked out at 100. The “herbicidal action MATIN” value in the assay with Matricaria inodora (Dosage 80 g/ha) came out at 100. Moreover, the “herbicidal action POLCO” value in the assay on Polygonum convolvulus [2] (Dosage 80 g/ha) came out at 100.
With `COCCSCc1c(C(F)(F)F)ccc(C(=O)Nc2nnnn2C)c1Cl` [Example 1-305], the “herbicidal activity ABUTH” value in the assay with Abutilon theophrasti (dosage 320 g/ha) amounted to 100%. The “herbicidal activity AMARE” value in the assay with Amaranthus retroflexus (dosage 320 g/ha) is listed as 100%. For the same compound, the “herbicidal activity PHBPU” value with Pharbitis purpurea is on record as 90%. Moreover, the “herbicidal action ECHCG” value in the assay with Echinochloa crus-galli (post-emergence, dosage 80 g/ha) came out at 100%. In the assay with Matricaria inodora (post-emergence, dosage 80 g/ha), the “herbicidal action MATIN” value turned out to be 100%. Further, the “herbicidal action POLCO” value in the assay with Polygonum convolvulus [2] (post-emergence, dosage 80 g/ha) is recorded as 100%.
Take `CCCn1nnnc1NC(=O)c1ccc(C(F)F)c(CS(=O)(=O)CC)c1Cl` [Example 3-325]: the “herbicidal activity ABUTH” value in the assay with Abutilon theophrasti (dosage 320 g/ha) turned out to be 100%. Besides, in the assay on Amaranthus retroflexus (dosage 320 g/ha), the “herbicidal activity AMARE” value turned out to be 100%. The “herbicidal activity PHBPU” value in the assay on Pharbitis purpurea turned out to be 100%. In the assay with Polygonum convolvulus [1], the “herbicidal activity POLCO” value was 100%. The “herbicidal action ECHCG” value with Echinochloa crus-galli (Dosage 80 g/ha) is 100.
`CSCc1c(I)ccc(C(=O)Nc2nnnn2C)c1Cl` [Example 1-362]: in the assay on Abutilon theophrasti (dosage 320 g/ha), the “herbicidal activity ABUTH” value is 100%. For the same compound, the “Herbicidal action against AMARE” value with Amaranthus retroflexus was determined as 90. Moreover, the “herbicidal activity AMARE” value in the assay with Amaranthus retroflexus (dosage 320 g/ha) is 100%. Moreover, the “herbicidal activity PHBPU” value in the assay on Pharbitis purpurea worked out at 80%. Further, the “herbicidal action ECHCG” value in the assay on Echinochloa crus-galli (post-emergence, dosage 80 g/ha) worked out at 100%. The “herbicidal action MATIN” value with Matricaria inodora (post-emergence, dosage 80 g/ha) is listed as 100%. Also, the “herbicidal action POLCO” value in the assay with Polygonum convolvulus [2] (post-emergence, dosage 80 g/ha) came to 90%.
As to `C=CCSCc1c(C(F)(F)F)ccc(C(=O)Nc2nnnn2CCC)c1Cl` [Example 3-308], in the assay on Abutilon theophrasti (dosage 320 g/ha), the “herbicidal activity ABUTH” value is on record as 100%. In addition, the “herbicidal activity AMARE” value in the assay on Amaranthus retroflexus (dosage 320 g/ha) was 100%. The “herbicidal activity PHBPU” value in the assay on Pharbitis purpurea came to 100%. Also, the “herbicidal action ECHCG” value in the assay on Echinochloa crus-galli (Dosage 80 g/ha) was determined as 100. Besides, the “herbicidal action MATIN” value in the assay with Matricaria inodora (Dosage 80 g/ha) turned out to be 100.

The values are drawn from patent publication US12492173B2, “Herbicidal substituted N-tetrazolyl aryl carboxamides” (Bayer Aktiengesellschaft, priority 2019, dated 2025).
